Data as given in patent US20120010177A1, “MicroRNA Modulators and Method for Identifying And Using The Same” (The Wistar Institute / North Carolina State University, priority 2008, published 2012).

System: miR-21
Assay: High throughput primary miR-21 FLuc reporter assay (concentration-response)
Assay type: cell-based, human
Details: HeLa Luc-miR-21 reporter, 48-hour incubation
Method: Primary miR-21 Assay. The primary miR-21 FLuc reporter assay is carried out with HeLa cells expressing the Luc-miR-21 reporter using a 48-hour incubation time. Active compounds that increase the luciferase response are identified based upon inhibition of miR-21.
SAR. The concentration-response data for the entire high throughput screen is plotted and modeled by a four parameter logistic fit and SAR analysis is performed according to conventional approaches (Iglese, et al. (2006) Proc. Natl. Acad. Sci. USA […]:11473-8). In brief, Class 1.1 and 1.2 are full curves containing upper and lower asymptotes with efficacy ≧80% and <80%, respectively. Class 2.1 and 2.2 are incomplete curves having only one asymptote with efficacy ≧80% and <80%, respectively. Class 3 curves show activity at only the highest concentration or are poorly fit. […] For SAR analysis, compounds associated with Class 1 and 2.1 curves are clustered using LEADSCOPE® fingerprints. […] Compounds sharing a common scaffold form a series. Candidate series and singletons are chosen for follow up studies. For each lead or series, an appropriate library design method (e.g., point substitution library or matrix library) is selected. Typically, precursors are synthesized and a library of 15-25 compounds is produced for analysis in the above-described assays.

| Structure (SMILES) | Efficacy |
| --- | --- |
| CC(=NNC(=O)c1ccoc1C)c1cccc2ccccc12 [Compound 209, CC(═NNC(═O)C1═C(C)/O/C═C\1)C2═C/C═C\C3═C\C═C/C═C\2\3] | −65.67 |

Same assay, conditions: HeLa Luc-miR-21 reporter, 48-hour incubation, four parameter logistic fit

| Structure (SMILES) | Curve Class |
| --- | --- |
| CC(=NNC(=O)c1ccoc1C)c1cccc2ccccc12 [Compound 209, CC(═NNC(═O)C1═C(C)/O/C═C\1)C2═C/C═C\C3═C\C═C/C═C\2\3] | −2.2 |

Same assay, conditions: HeLa Luc-miR-21 reporter, 48-hour incubation; read-out: AC50

| Structure (SMILES) | AC50 [µM] |
| --- | --- |
| CC(=NNC(=O)c1ccoc1C)c1cccc2ccccc12 [Compound 209, CC(═NNC(═O)C1═C(C)/O/C═C\1)C2═C/C═C\C3═C\C═C/C═C\2\3] | 7.36 |

Same assay, conditions: Homo sapiens, HeLa, 48 h, HeLa Luc-miR-21 reporter, 48-hour incubation; read-out: AC50

| Structure (SMILES) | AC50 [µM] |
| --- | --- |
| Cc1cc(C)n2nc(SCCOc3ccccc3F)nc2n1 [Compound 47] | 11.7 |
| O=C(Cc1cccs1)N/N=C/C(Cl)=C/c1ccccc1 [Compound 193] | 2.93 |
| Cc1cc(C)c(C#N)c(SCC(=O)Nc2ccc3c(c2)OCO3)n1 [Compound 128] | 3.29 |
| O=C(COc1ccccc1[N+](=O)[O-])N/N=C/c1cccc(OC(=O)c2ccc3c(c2)OCO3)c1 [Compound 173] | 18.5 |
| Nc1ncnc(Nc2ccc(F)c(Cl)c2)n1 [Compound 65] | 16.5 |
| C/C(=N\NC(=O)c1ccc(Br)o1)c1ccc(C)o1 [Compound 216] | 10.4 |
| COc1cc2cc(C#N)c(SCC(=O)N3CCOCC3)nc2cc1OC [Compound 144] | 11.7 |
| CC(=O)c1cnc2nc(SCc3ccccc3)nn2c1C [Compound 43] | 5.21 |
| Cc1ccc(OCC(=O)N(Cc2ccco2)c2ccccn2)cc1 [Compound 169] | 14.7 |
| CCc1nonc1NC(=O)c1oc2ccc(C)cc2c1C [Compound 73] | 5.85 |
| Nc1c(-c2nc(-c3ccccc3Cl)no2)nnn1-c1ccccc1F [Compound 12] | 0.83 |
| O=C(N/N=C1\CC2C=CCC12)c1cccs1 (stereo not drawn) [Compound 221] | 11.7 |
| C/C(=N\N1C(=O)c2ccccc2NC1c1ccccc1)c1ccccc1O (stereo not drawn) [Compound 192] | 2.61 |
| CC(C)(C)c1ccc(NC(=O)CSc2nnc(-c3[nH]nc4ccccc34)o2)cc1 [Compound 138] | 6.56 |
| Cc1cc(CC(C)C)n(-c2nc3ccccc3c(=O)n2OCC(N)=O)n1 [Compound 180] | 14.7 |
| CCc1ccc2oc(C(=O)Nc3nonc3CC)c(C)c2c1 [Compound 72] | 2.93 |
| Cc1ccccc1Nc1nc(N)nc(CN(C)c2ccccc2)n1 [Compound 71] | 18.5 |
| CC(=O)n1nc(-c2ccccc2)nc1NCc1cccs1 [Compound 42] | 18.5 |
| C/C(=N\NC(=O)c1ccoc1C)c1ccc(Br)s1 [Compound 219] | 11.7 |
| O=C(c1cccc([N+](=O)[O-])c1)n1nc(-c2ccccc2)nc1NCc1ccccc1 [Compound 40] | 16.5 |
| COc1ccc(C(=O)Nc2nnc(C(C)C)s2)cc1OC [Compound 92] | 7.36 |
| Cc1ccccc1OCCn1cnc2c(N)ncnc21 [Compound 239] | 9.27 |
| C/C(CCc1ccccc1)=N\NC(=O)c1ccccc1 [Compound 222] | 13.1 |
| Fc1cccc(Cl)c1CSc1nnc2ccccn12 [Compound 46] | 10.4 |
| COc1ccccc1NC(=O)C/C(C)=N/NC(=O)c1ccccn1 [Compound 188] | 1.85 |
| O=C(Nc1ccc2nc3n(c(=O)c2c1)CCCCC3)c1ccccc1Cl [Compound 112] | 6.56 |

| Structure (SMILES) | AC50 [µM] |
| --- | --- |
| Fc1ccccc1CSc1nnc(-c2cnccn2)n1Cc1ccco1 [Compound 54] | 20.8 |
| Clc1ccc(-n2ncc3c(NCc4ccccn4)ncnc32)cc1 [Compound 245] | 5.85 |
| COc1ccc(C2=NN(C(C)=O)C(c3cccs3)C2)cc1OC (stereo not drawn) [Compound 212] | 8.26 |
| Cc1cc(C)n2nc(SCCOc3ccccc3)nc2n1 [Compound 45] | 7.36 |
| Nc1c(-c2nc(-c3cccs3)no2)nnn1-c1ccccc1Cl [Compound 22] | 0.09 |
| Cc1cc(C)c2c(N)c(C(=O)Nc3ccccc3C(F)(F)F)sc2n1 [Compound 83] | 8.26 |
| COc1ccc(-n2nnc(-c3nc(-c4cccs4)no3)c2N)cc1 [Compound 17] | 0.58 |
| CCCCCCC1/C(=N\NC(=O)c2ccccc2)CCC1C(=O)OC (stereo not drawn) [Compound 230] | 16.5 |
| C/C(=N\NC(=O)c1ccccc1)c1ccc(NC(=O)C(F)(F)F)cc1 [Compound 197] | 4.65 |
| COc1cc(NC(=O)C/C(C)=N/NC(=O)c2ccccn2)c(OC)cc1Cl [Compound 194] | 3.69 |
| CCc1ccc(-n2nnc(-c3nc(-c4cccs4)no3)c2N)cc1 [Compound 15] | 1.17 |
| Cc1ccc(-c2nc3ncccn3c2Nc2ccc3c(c2)OCCO3)o1 [Compound 242] | 16.5 |
| O=C(Nc1ccccc1OC(=O)c1ccc(Cl)cc1)c1ccc(Cl)cc1 [Compound 107] | 11.7 |
| CC(=O)Nc1ccccc1NC(=O)C/C(C)=N/NC(=O)c1ccccn1 [Compound 189] | 1.85 |
| CC(=O)Nc1nc2c(C)cc(NC(=O)C3CCCCC3)cc2s1 [Compound 97] | 14.7 |
| COc1ccc(-c2nc(SCc3ccccc3)n(S(C)(=O)=O)n2)cc1 [Compound 48] | 13.1 |
| COc1ccc(-c2nnc(SCC(=O)Nc3cccc(C)c3)s2)cc1 [Compound 151] | 13.1 |
| Cc1occc1C(=O)N/N=C(\S)Nc1ccccc1C(F)(F)F [Compound 211] | 8.26 |
| O=C(CSc1nnc(-c2ccc(C(F)(F)F)cn2)o1)Nc1cccc(Cl)c1 [Compound 132] | 4.14 |
| C=CCNC(=S)NNC(=O)COc1ccc2cc(Br)ccc2c1 [Compound 181] | 7.36 |
| Cc1cc(Cl)c2oc(C(=O)N(CCO)Cc3ccccc3)c(C)c2c1 [Compound 78] | 14.7 |
| COCC(=O)Nc1c(C(=O)Nc2ccc3c(c2)OCCO3)oc2ccccc12 [Compound 100] | 0.66 |
| Cc1ccc(NC(=O)CSc2nnc(-c3cccs3)o2)cc1S(=O)(=O)N(C)C [Compound 141] | 8.26 |
| Cc1cc(C)cc(NC(=O)CSc2nnc(-c3ccccc3C)o2)c1 [Compound 157] | 14.7 |
| Cc1ccc(CNc2nc(-c3ccco3)nn2S(C)(=O)=O)cc1 [Compound 29] | 0.58 |
| Cc1cccc(-c2nsc(SCC(=O)Nc3ccc4c(c3)OCO4)n2)c1 [Compound 148] | 13.1 |

Same assay, conditions: Homo sapiens, Table 12 singletons; read-out: AC50

| Structure (SMILES) | AC50 [µM] |
| --- | --- |
| O=C(NC12CC3CC(CC(C3)C1)C2)N1CCN(C(=O)c2ccco2)CC1 [Compound 317] | 16.5 |
| CCN(CC)CCCNC(=O)CCC(=O)Nc1ccc2nc(N3CCC(C)CC3)cc(C)c2c1 [Compound 341] | 18.5 |
| CC(/C=C/c1ccccc1)=N\N/C(S)=N/C(C)C [Compound 302] | 14.7 |
| N#CC1=C(SCC(=O)Nc2ccccc2)NC(=O)CC1c1ccc(O)cc1 (stereo not drawn) [Compound 275] | 6.56 |
| CCc1ccc(N2C(=O)Cc3c2nc(N)c(C#N)c3N)cc1 [Compound 318] | 16.5 |
| COc1ccc(-c2nc3c(Br)c(N)c(Br)cc3o2)cc1 [Compound 256] | 2.07 |
| O=C(CN1c2ccc(Br)cc2-c2ccccc2[S+]1(=O)[O-])N1CCCCC1 [Compound 345] | 9.27 |
| CSc1ccc(-c2cccc([N+](=O)[O-])c2)nn1 [Compound 277] | 6.56 |
| Cc1ccc2c(c1)NCC(C(=O)NC1CCC(C)CC1)O2 (stereo not drawn) [Compound 305] | 14.7 |
| CN(C)c1ccc(-n2cccc2/C=N/n2cnnc2)cc1 [Compound 282] | 8.26 |
| CCOC(=O)C1CCCN(Cc2cccc(Cl)c2)C1 (stereo not drawn) [Compound 335] | 18.5 |
| O=C(Nc1ccc(N2CCOCC2)cc1)c1cc(F)c(F)cc1Cl [Compound 330] | 16.5 |
| CN1CCN(/N=C/c2nc(-c3ccc(Cl)cc3)n3ccccc23)CC1 [Compound 325] | 16.5 |
| Cn1nc(NC(=O)C(F)(F)F)c2ncc(-c3ccc(Cl)cc3)nc21 [Compound 283] | 9.27 |
| Nc1c(Cl)cc2c(c1Oc1ccccc1)C(=O)c1ccccc1C2=O [Compound 266] | 4.14 |
| O=C(CC1NCCc2ccccc21)Nc1cccc(Cl)c1 (stereo not drawn) [Compound 315] | 16.5 |
| CCc1ccc(NC(=O)NCCCN2CCCC2=O)cc1 [Compound 291] | 11.7 |
| O=c1n(Cc2ccccc2)nc2n1-c1ccccc1SC2 [Compound 321] | 16.5 |
| CC(=O)N(C)c1ccc(N/C(S)=N/c2cccc3ccccc23)cc1 [Compound 337] | 18.5 |
| Oc1csc(Cc2nc(-c3ccccc3F)cs2)n1 [Compound 276] | 6.56 |
| CC(=O)N1N=C(c2ccc(C)cc2)OC1c1cccnc1 (stereo not drawn) [Compound 322] | 16.5 |
| COc1cc(O)sc1/C=N/c1ccc(Cl)cc1 [Compound 279] | 7.36 |
| Cc1cc(CC(C)C)n(-c2nc3ccccc3c(=O)n2OCC(N)=O)n1 [Compound 313] | 14.7 |
| O=C(CN1c2ccc(Br)cc2-c2ccccc2S1(=O)=O)N1CCCCC1 [Compound 280] | 7.36 |
| CCC(C)NC(=O)c1ccc2c(c1)S(=O)(=O)c1ccccc1C2=O (stereo not drawn) [Compound 331] | 16.5 |
| COc1ccc(NCc2cccn2-c2nnc(N3CCC(C)CC3)s2)c(OC)c1 [Compound 255] | 1.85 |
| CC(C)(C)c1ccc(CN2C(=O)c3ccccc3S2(=O)=O)cc1 [Compound 308] | 14.7 |
| CNc1nc(C)c(C(=O)OCc2ccccc2)s1 [Compound 316] | 16.5 |
| CC(=O)N1CCN(c2nc3c(F)cc(F)cc3s2)CC1 [Compound 254] | 1.85 |
| CC1Oc2ccccc2N(CC(=O)NCc2cccs2)C1=O (stereo not drawn) [Compound 334] | 18.5 |

Same assay, conditions: Table 12 singletons; read-out: AC50

| Structure (SMILES) | AC50 [µM] |
| --- | --- |
| Cn1nc(NC(=O)C(F)(F)F)c2ncc(-c3ccc(Cl)cc3)nc21 [Compound 292] | 13.1 |
| COC(=O)C1C(=O)C=C(Nc2ccc(F)cc2F)CC1c1ccccc1 (stereo not drawn) [Compound 343] | 18.5 |
